Key:
[1] = molecular target: recombinant human HDAC1 (Homo sapiens (Human), UniProt Q13547); assay: Enzymatic screening, HDAC1 inhibition (fluorogenic FdL_G substrate); type: biochemical
In short: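 Recombinant human HDAC1 inhibition was measured fluorometrically using the FLUOR DE LYS-Green (FdL_G) substrate. Compounds at 8 doses (1% DMSO final) in Tris-HCl pH 8 buffer with NaCl, Tween-20 and glycerol were preincubated in triplicate with enzyme and 1 mg/mL BSA, then given substrate. Developer I plus 2 μM TSA was added, and fluorescence read after 25 minutes in the dark.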

[2] = molecular target: recombinant human HDAC6 (Homo sapiens (Human), UniProt Q9UBN7); assay: Enzymatic screening, HDAC6 inhibition (fluorogenic FdL_G substrate); type: biochemical
Chain of recombinant human HDAC6 (Q9UBN7 whole entry): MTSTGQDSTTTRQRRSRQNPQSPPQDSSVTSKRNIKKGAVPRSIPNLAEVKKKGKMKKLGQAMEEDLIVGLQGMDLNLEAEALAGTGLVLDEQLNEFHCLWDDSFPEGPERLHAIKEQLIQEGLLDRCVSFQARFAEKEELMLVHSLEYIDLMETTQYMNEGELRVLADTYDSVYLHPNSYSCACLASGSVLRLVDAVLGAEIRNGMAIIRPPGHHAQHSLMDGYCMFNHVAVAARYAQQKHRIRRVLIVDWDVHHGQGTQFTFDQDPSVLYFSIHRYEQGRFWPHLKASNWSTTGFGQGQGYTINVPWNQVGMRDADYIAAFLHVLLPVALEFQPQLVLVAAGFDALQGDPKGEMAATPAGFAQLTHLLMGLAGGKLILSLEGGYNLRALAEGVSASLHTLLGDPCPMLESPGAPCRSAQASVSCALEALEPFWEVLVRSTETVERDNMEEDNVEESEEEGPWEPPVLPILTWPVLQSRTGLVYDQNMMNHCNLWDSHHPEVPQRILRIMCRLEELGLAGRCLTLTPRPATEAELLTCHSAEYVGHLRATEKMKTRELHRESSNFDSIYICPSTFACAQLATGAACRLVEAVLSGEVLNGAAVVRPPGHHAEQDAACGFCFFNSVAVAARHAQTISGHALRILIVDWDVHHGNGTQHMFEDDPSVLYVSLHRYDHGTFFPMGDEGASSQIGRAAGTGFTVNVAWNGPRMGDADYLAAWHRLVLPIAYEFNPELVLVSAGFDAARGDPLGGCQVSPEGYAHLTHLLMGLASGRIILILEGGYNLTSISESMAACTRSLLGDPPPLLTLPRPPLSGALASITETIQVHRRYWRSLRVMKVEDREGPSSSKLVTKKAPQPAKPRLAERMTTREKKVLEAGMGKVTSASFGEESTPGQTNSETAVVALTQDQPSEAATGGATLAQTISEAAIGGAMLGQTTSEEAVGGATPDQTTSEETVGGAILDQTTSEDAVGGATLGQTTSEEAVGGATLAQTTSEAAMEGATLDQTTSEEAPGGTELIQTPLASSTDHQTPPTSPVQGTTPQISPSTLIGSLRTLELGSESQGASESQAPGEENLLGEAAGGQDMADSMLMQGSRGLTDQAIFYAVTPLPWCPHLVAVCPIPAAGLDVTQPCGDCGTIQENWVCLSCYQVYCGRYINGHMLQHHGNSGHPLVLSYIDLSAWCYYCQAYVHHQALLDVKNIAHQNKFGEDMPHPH
In short: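 Enzyme was preincubated with compound (8 doses, triplicate, 1% DMSO) in 25 mM Tris-HCl pH 8, 130 mM NaCl, 0.05% Tween-20, 10% glycerol, with BSA. A FLUOR DE LYS-Green substrate was then added, and fluorescence was read after developer plus 2 μM TSA.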

Chain of recombinant human HDAC1 (Q13547 whole entry): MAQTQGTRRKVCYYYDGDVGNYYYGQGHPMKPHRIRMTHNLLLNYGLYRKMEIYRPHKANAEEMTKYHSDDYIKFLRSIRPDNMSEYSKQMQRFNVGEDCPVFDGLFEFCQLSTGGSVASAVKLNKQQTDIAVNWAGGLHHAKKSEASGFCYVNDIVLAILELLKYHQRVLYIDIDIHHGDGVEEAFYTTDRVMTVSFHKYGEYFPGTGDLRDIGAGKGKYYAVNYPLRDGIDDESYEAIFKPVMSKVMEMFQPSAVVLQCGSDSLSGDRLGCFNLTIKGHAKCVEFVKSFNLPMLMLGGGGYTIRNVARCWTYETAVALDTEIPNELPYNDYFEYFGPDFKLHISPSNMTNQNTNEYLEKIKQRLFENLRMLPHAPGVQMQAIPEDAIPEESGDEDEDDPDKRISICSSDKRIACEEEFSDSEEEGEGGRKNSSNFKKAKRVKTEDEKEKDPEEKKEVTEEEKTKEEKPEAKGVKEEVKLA

Structure (SMILES)	IC50 [1] [nM]	IC50 [2] [nM]
O=C1Nc2cc(-c3nnn(Cc4ccc(-c5nnc(C(F)F)o5)cc4)n3)ccc2NC12CCCCC2 [compound 209, 6′-(2-(4-(5-(difluoromethyl)-1,3,4-oxadiazol-2-yl)benzyl)-2H-tetrazol-5-yl)-1′,4′-dihydro-3′H-spiro[cyclohexane-1,2′-quinoxalin]-3′-one]	> 200000	133
O=c1[nH]c2cc(-c3nnn(Cc4ccc(-c5nnc(C(F)F)o5)cc4)n3)ccc2o1 [compound 225, 5-(2-(4-(5-(difluoromethyl)-1,3,4-oxadiazol-2-yl)benzyl)-2H-tetrazol-5-yl)benzo[d]oxazol-2 (3H)-one]	> 200000	169
Nc1ncnc2sc(-c3cn(Cc4ccc(-c5nnc(C(F)F)o5)cc4F)nn3)cc12 [compound 416, 6-[1-({4-[5-(difluoromethyl)-1,3,4-oxadiazol-2-yl]-2-fluorophenyl}methyl)-1H-1,2,3-triazol-4-yl]thieno[2,3-d]pyrimidin-4-amine]	1e+06	46
FC(F)c1nnc(-c2ccc(Cn3nnnc3-c3ncccn3)cc2)o1 [compound 287, 2-(difluoromethyl)-5-(4-((5-(pyrimidin-2-yl)-1H-tetrazol-1-yl)methyl)phenyl)-1,3,4-oxadiazole]	> 200000	446
Fc1ccccc1-c1nnn(Cc2ccc(-c3nnc(C(F)F)o3)cc2)n1 [compound 181, 2-(difluoromethyl)-5-(4-((5-(2-fluorophenyl)-2H-tetrazol-2-yl)methyl)phenyl)-1,3,4-oxadiazole]	> 200000	92
Nc1nc2ccc(-c3cc(Cc4ccc(-c5nnc(C(F)F)o5)cc4)on3)cc2s1 [compd. 366, 6-[5-[[4-[5-(difluoromethyl)-1,3,4-oxadiazol-2-yl]phenyl]methyl]-1,2-oxazol-3-yl]-1,3-benzothiazol-2-amine]	> 1e+06	297
FC(F)c1nnc(-c2ccc(Cn3nnc(-c4cccc(-c5cnc(N6CCOCC6)s5)c4)n3)cc2)o1 [compd. 253, 4-(5-(3-(2-(4-(5-(difluoromethyl)-1,3,4-oxadiazol-2-yl)benzyl)-2H-tetrazol-5-yl)phenyl)thiazol-2-yl)morpholine]	> 200000	352
Nc1ccc(-c2cn(Cc3ccc(-c4nnc(C(F)F)o4)cc3)nn2)cc1 [compound 121, 4-(1-(4-(5-(difluoromethyl)-1,3,4-oxadiazol-2-yl)benzyl)-1H-1,2,3-triazol-4-yl)aniline]	> 200000	45
FC(F)c1nnc(-c2ccc(Cn3nnc(-c4ccc(N5CCNCC5)cc4)n3)cc2)o1 [compound 103, 2-(difluoromethyl)-5-(4-((5-(4-(piperazin-1-yl)phenyl)-2H-tetrazol-2-yl)methyl)phenyl)-1,3,4-oxadiazole]	> 200000	39
O=C(Nc1cccc(-c2cn(Cc3ncc(-c4nnc(C(F)F)o4)cc3F)nn2)c1)N1CCOCC1 [compound 336, N-[3-[1-[[5-[5-(difluoromethyl)-1,3,4-oxadiazol-2-yl]-3-fluoropyridin-2-yl]methyl]triazol-4-yl]phenyl]morpholine-4-carboxamide]	> 1e+06	57
CCNc1cccc(-c2cn(Cc3ccc(-c4nnc(C(F)F)o4)cc3)nn2)c1 [compound 180, 3-(1-(4-(5-(difluoromethyl)-1,3,4-oxadiazol-2-yl)benzyl)-1H-1,2,3-triazol-4-yl)-N-ethylaniline]	> 200000	92
Nc1cccc(-c2cn(Cc3ccc(-c4nnc(C(F)F)o4)cc3)nn2)c1 [compound 192, 3-(1-(4-(5-(difluoromethyl)-1,3,4-oxadiazol-2-yl)benzyl)-1H-1,2,3-triazol-4-yl)aniline]	> 200000	102
CNc1ccc(-c2nnn(Cc3ccc(-c4nnc(C(F)F)o4)cc3)n2)cc1NC(=O)N1CCOCC1 [compound 176, N-(5-(2-(4-(5-(difluoromethyl)-1,3,4-oxadiazol-2-yl)benzyl)-2H-tetrazol-5-yl)-2-(methylamino)phenyl)morpholine-4-carboxamide]	> 200000	88
Fc1cc(-c2nnc(C(F)F)o2)ccc1Cn1nnc(-c2cccc(-c3nc4c([nH]3)CCNC4)c2)n1 [compound 354, 2-(difluoromethyl)-5-[3-fluoro-4-[[5-[3-(4,5,6,7-tetrahydro-1H-imidazo[4,5-c]pyridin-2-yl)phenyl]tetrazol-2-yl]methyl]phenyl]-1,3,4-oxadiazole]	183000	25
O=C1NCc2cc(-c3nnn(Cc4ccc(-c5nnc(C(F)F)o5)cc4)n3)ccc21 [compound 167, 5-(2-(4-(5-(difluoromethyl)-1,3,4-oxadiazol-2-yl)benzyl)-2H-tetrazol-5-yl)isoindolin-1-one]	> 200000	79
Nc1nc2cc(-c3cn(Cc4ccc(-c5nnc(C(F)F)o5)cn4)cn3)ccc2s1 [compound 322, 5-[1-[[5-[5-(difluoromethyl)-1,3,4-oxadiazol-2-yl]pyridin-2-yl]methyl]imidazol-4-yl]-1,3-benzothiazol-2-amine]	> 1e+06	17
CC(c1ccc(-c2nnc(C(F)F)o2)cc1F)n1cc(-c2cccc(NC(=O)N3CCOCC3)c2)nn1 (stereo not drawn) [compound 165, N-(3-(1-(1-(4-(5-(difluoromethyl)-1,3,4-oxadiazol-2-yl)-2-fluorophenyl)ethyl)-1H-1,2,3-triazol-4-yl)phenyl)morpholine-4-carboxamide]	> 200000	78
CN(C)S(=O)(=O)c1ccc(F)c(-c2nnn(Cc3ccc(-c4nnc(C(F)F)o4)cc3)n2)c1 [compound 163, 3-(2-(4-(5-(difluoromethyl)-1,3,4-oxadiazol-2-yl)benzyl)-2H-tetrazol-5-yl)-4-fluoro-N,N-dimethylbenzenesulfonamide]	> 200000	77
Nc1ccc(-c2nc(Cc3c(F)cc(-c4nnc(C(F)F)o4)cc3F)no2)cn1 [compound 141, 5-(3-(4-(5-(difluoromethyl)-1,3,4-oxadiazol-2-yl)-2,6-difluorobenzyl)-1,2,4-oxadiazol-5-yl)pyridin-2-amine]	> 200000	56
Nc1ccc(-c2cn(Cc3c(F)cc(-c4nnc(C(F)F)o4)cc3F)nn2)cc1 [compound 296, 4-(1-(4-(5-(difluoromethyl)-1,3,4-oxadiazol-2-yl)-2,6-difluorobenzyl)-1H-1,2,3-triazol-4-yl)aniline]	> 200000	34
Nc1nc2ccc(-c3cnn(Cc4ccc(-c5nnc(C(F)F)o5)cc4)c3)cc2s1 [compound 326, 6-(1-(4-(5-(difluoromethyl)-1,3,4-oxadiazol-2-yl)benzyl)-1H-pyrazol-4-yl)benzo[d]thiazol-2-amine]	> 1e+06	219
CNc1ncc2cc(-c3cn(Cc4ccc(-c5nnc(C(F)F)o5)c(F)c4F)nn3)ccc2n1 [compound 389, 6-[1-({4-[5-(difluoromethyl)-1,3,4-oxadiazol-2-yl]-2,3-difluorophenyl}methyl)-1H-1,2,3-triazol-4-yl]-N-methylquinazolin-2-amine]	1e+06	192
Nc1ccc(-c2ncc(Cc3ccc(-c4nnc(C(F)F)o4)cc3)o2)cc1 [compound 330, 4-(5-(4-(5-(difluoromethyl)-1,3,4-oxadiazol-2-yl)benzyl)oxazol-2-yl)aniline]	> 1e+06	465
FC(F)c1nnc(-c2ccc(Cn3cc(-c4cnc5cccnn45)nn3)nc2)o1 [compound 74, 2-(difluoromethyl)-5-(6-((4-(imidazo[1,2-b]pyridazin-3-yl)-1H-1,2,3-triazol-1-yl)methyl)pyridin-3-yl)-1,3,4-oxadiazole]	> 200000	31
O=C(Nc1cc(-c2nnn(Cc3c(F)cc(-c4nnc(C(F)F)o4)cc3F)n2)ccc1OC(=O)N1CCOCC1)N1CCOCC1 [compound 196, 4-(2-(4-(5-(difluoromethyl)-1,3,4-oxadiazol-2-yl)-2,6-difluorobenzyl)-2H-tetrazol-5-yl)-2-(morpholine-4-carboxamido)phenyl morpholine-4-carboxylate]	> 200000	107
O=C(Nc1cccc(-c2nnn(Cc3ccc(-c4nnc(C(F)F)o4)cc3)n2)c1)N1CCOCC1 [compound 71, N-(3-(2-(4-(5-(difluoromethyl)-1,3,4-oxadiazol-2-yl)benzyl)-2H-tetrazol-5-yl)phenyl)morpholine-4-carboxamide]	> 200000	30
[2H]C([2H])(c1ccc(-c2nnc(C(F)F)o2)cc1)n1cnc(-c2ccc(NC3=NCCN3)cc2)c1 [compound 368, N-[4-[1-[dideuterio-[4-[5-(difluoromethyl)-1,3,4-oxadiazol-2-yl]phenyl]methyl]imidazol-4-yl]phenyl]-4,5-dihydro-1H-imidazol-2-amine]	> 1e+06	17
Nc1nc2ccc(-c3cn(Cc4ccc(-c5nnc(C(F)F)o5)c(F)c4F)nn3)cc2s1 [compound 341, 6-[1-[[4-[5-(difluoromethyl)-1,3,4-oxadiazol-2-yl]-2,3-difluorophenyl]methyl]triazol-4-yl]-1,3-benzothiazol-2-amine]	> 1e+06	135
Nc1cncc(-c2cn(Cc3c(F)cc(-c4nnc(C(F)F)o4)cc3F)nn2)c1 [compound 73, 5-(1-(4-(5-(difluoromethyl)-1,3,4-oxadiazol-2-yl)-2,6-difluorobenzyl)-1H-1,2,3-triazol-4-yl)pyridin-3-amine]	> 200000	31
CN(C)c1nc2cc(-c3nnn(Cc4ccc(-c5nnc(C(F)F)o5)cc4)n3)ccc2o1 [compound 249, 5-(2-(4-(5-(difluoromethyl)-1,3,4-oxadiazol-2-yl)benzyl)-2H-tetrazol-5-yl)-N,N-dimethylbenzo[d]oxazol-2-amine]	> 200000	277
